Source: ChEMBL document CHEMBL1201862, “PubChem BioAssay data set” (2004)
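Grown in 96-well plates, cells were treated for 48 hours with each compound at five concentrations. Insufficient inhibition: endpoint recorded as highest concentration tested. At the GI50, growth is halved.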 Calls of active or inactive are those of the source. Cut-off read from the data, not from the text of the source: active = GI50 up to about 1.1 µM and inactive = higher.

Legend:
Assay in all cases: inhibition of tumour cell growth, NCI panel, 48 h
[1] = system: MOLT-4
[2] = system: NCI-H460
[3] = system: SF-539
[4] = system: HOP-62
[5] = system: SK-MEL-2
[6] = system: KM12
[7] = system: OVCAR-4
[8] = system: HOP-92
[9] = system: OVCAR-5
[10] = system: SK-MEL-28
[11] = system: SK-OV-3
[12] = system: U-251
[13] = system: SR
[14] = system: OVCAR-8
[15] = system: A498
[16] = system: Malme-3M
[17] = system: RXF 393
[18] = system: HCC 2998
[19] = system: EKVX
[20] = system: HCT-15

Structure (SMILES) | GI50 [1] | GI50 [2] | GI50 [3] | GI50 [4] | GI50 [5] | GI50 [6] | GI50 [7] | GI50 [8] | GI50 [9] | GI50 [10] | GI50 [11] | GI50 [12] | GI50 [13] | GI50 [14] | GI50 [15] | GI50 [16] | GI50 [17] | GI50 [18] | GI50 [19] | GI50 [20] [µM]
c1ccc2c3nc(C4CCCC4)nc-3c(NC3CCCC3)[nH]c2c1 | 6 µM (inactive) | 8.04 µM (inactive) | 15.3 µM (inactive) | 19.1 µM (inactive) | 14 µM (inactive) | 7.08 µM (inactive) | 14.4 µM (inactive) | 19.3 µM (inactive) | 22.5 µM (inactive) | 13 µM (inactive) | 32.1 µM (inactive) | 3.23 µM (inactive) | 10.3 µM (inactive) | 6.87 µM (inactive) | 21.3 µM (inactive) | 16.6 µM (inactive) | 14.7 µM (inactive) | 6.76 µM (inactive) | 57.4 µM (inactive) | 8.49
C=C(c1nc2ccc(Cl)cc2[nH]c1=O)C(O)c1ccc(C(O)C(=O)c2nc3ccc(Cl)cc3[nH]c2=O)cc1 (stereo not given) | 33.2 µM (inactive) | > 100 µM (inactive) | > 100 µM (inactive) | > 100 µM (inactive) | > 100 µM (inactive) | 60.1 µM (inactive) | > 100 µM (inactive) | > 100 µM (inactive) | > 100 µM (inactive) | > 100 µM (inactive) | > 100 µM (inactive) | > 100 µM (inactive) | 83.6 µM (inactive) | > 100 µM (inactive) | > 100 µM (inactive) | > 100 µM (inactive) | > 100 µM (inactive) | > 100 µM (inactive) | > 100 µM (inactive) | 74.5
CCOC(=O)/C=C(\C(=O)OCC)n1ccc(=O)n(Cc2cn(COCCOC(C)=O)nn2)c1=O | 14.9 µM (inactive) | > 38.1 µM (inactive) | 20.1 µM (inactive) | 98.6 µM (inactive) | 20.8 µM (inactive) | 29.6 µM (inactive) | 19.5 µM (inactive) | 19 µM (inactive) | 23.4 µM (inactive) | 18 µM (inactive) | > 100 µM (inactive) | 18.9 µM (inactive) | 21 µM (inactive) | 16.3 µM (inactive) | > 54.3 µM (inactive) | 15.2 µM (inactive) | 15.7 µM (inactive) | 16.6 µM (inactive) | 19.9 µM (inactive) | 18.9
CCOC(=O)/N=c1\ss/c(=N\C(=S)N(C)C)n1-c1ccccc1 | 4.27 µM (inactive) | 2.7 µM (inactive) | 40.7 µM (inactive) | 42.5 µM (inactive) | 67.8 µM (inactive) | 8.63 µM (inactive) | 2.16 µM (inactive) | 25.8 µM (inactive) | > 100 µM (inactive) | 1.82 µM (inactive) | > 10 µM (inactive) | 19.4 µM (inactive) | 3.72 µM (inactive) | > 10 µM (inactive) | 4.42 µM (inactive) | > 10 µM (inactive) | 1.07 µM (active) | > 10 µM (inactive) | > 100 µM (inactive) | > 10
COC(=O)CN1c2nc(C#N)c(C#N)nc2N(CC(=O)OC)c2nc(C#N)c(C#N)nc21 | 0.479 µM (active) | 22 µM (inactive) | 7.11 µM (inactive) | 16.5 µM (inactive) | 8.81 µM (inactive) | 8.22 µM (inactive) | 3.1 µM (inactive) | 1.87 µM (inactive) | 8 µM (inactive) | 3.74 µM (inactive) | 15.3 µM (inactive) | 6.81 µM (inactive) | 2 µM (inactive) | 2.37 µM (inactive) | 15.3 µM (inactive) | 0.301 µM (active) | 2.91 µM (inactive) | 16.7 µM (inactive) | 4.47 µM (inactive) | 3.05
CC(=O)OC1C2CCC3CC2C2(SCCS2)C31 (stereo not given) | > 100 µM (inactive) | > 100 µM (inactive) | 65.9 µM (inactive) | 87.7 µM (inactive) | > 100 µM (inactive) | > 100 µM (inactive) | > 100 µM (inactive) | > 100 µM (inactive) | > 100 µM (inactive) | > 100 µM (inactive) | > 100 µM (inactive) | > 100 µM (inactive) | > 100 µM (inactive) | > 100 µM (inactive) | > 100 µM (inactive) | > 100 µM (inactive) | > 100 µM (inactive) | > 100 µM (inactive) | > 100 µM (inactive) | > 100
CC(=O)CC(=O)N1CCOC1=O | > 10 µM (inactive) | > 10 µM (inactive) | > 10 µM (inactive) | > 10 µM (inactive) | > 10 µM (inactive) | > 10 µM (inactive) | > 10 µM (inactive) | > 10 µM (inactive) | > 10 µM (inactive) | > 10 µM (inactive) | > 10 µM (inactive) | > 10 µM (inactive) | > 10 µM (inactive) | > 10 µM (inactive) | > 10 µM (inactive) | > 10 µM (inactive) | > 10 µM (inactive) | > 10 µM (inactive) | > 10 µM (inactive) | > 10
N=C1N=C(N)c2cc3c(cc21)SCCSCCCSCCS3 | 10.2 µM (inactive) | 13.3 µM (inactive) | 20.1 µM (inactive) | 13.6 µM (inactive) | 16.1 µM (inactive) | 11.9 µM (inactive) | 19.8 µM (inactive) | 23.1 µM (inactive) | 18.4 µM (inactive) | 14.6 µM (inactive) | 18.5 µM (inactive) | 15.1 µM (inactive) | 11.1 µM (inactive) | 18 µM (inactive) | > 44.7 µM (inactive) | 20.5 µM (inactive) | 15.8 µM (inactive) | 9.62 µM (inactive) | 19.9 µM (inactive) | 14.3
CCOc1ccc(/N=C/c2ccnc3ccccc23)cc1 | 5.9 µM (inactive) | 61.7 µM (inactive) | 26.5 µM (inactive) | 54.6 µM (inactive) | 61.8 µM (inactive) | 19.7 µM (inactive) | 62.8 µM (inactive) | 49.8 µM (inactive) | 99.3 µM (inactive) | 50.1 µM (inactive) | 67.8 µM (inactive) | 32.7 µM (inactive) | 0.752 µM (active) | 21.2 µM (inactive) | > 100 µM (inactive) | 75.9 µM (inactive) | > 96.6 µM (inactive) | 32.4 µM (inactive) | > 93.1 µM (inactive) | 11.5
O=[N+]([O-])c1cccc(C2=NN(c3ccccc3)C[N+](c3ccc(Br)cc3)=N2)c1 | 35.7 µM (inactive) | > 100 µM (inactive) | > 100 µM (inactive) | > 100 µM (inactive) | 87.3 µM (inactive) | 73.5 µM (inactive) | > 100 µM (inactive) | 83.2 µM (inactive) | > 100 µM (inactive) | > 100 µM (inactive) | > 100 µM (inactive) | > 100 µM (inactive) | < 0.01 µM (active) | > 100 µM (inactive) | > 100 µM (inactive) | > 100 µM (inactive) | > 100 µM (inactive) | 70.8 µM (inactive) | > 100 µM (inactive) | > 100
C[Si](C)(C)C1=C([Si](C)(C)C)C(Cl)(Cl)C1=O | 0.671 µM (active) | 12.4 µM (inactive) | 5.22 µM (inactive) | 18.7 µM (inactive) | 9.12 µM (inactive) | 6.17 µM (inactive) | 3.28 µM (inactive) | 2.04 µM (inactive) | 7.28 µM (inactive) | 2.79 µM (inactive) | 22.6 µM (inactive) | 4.08 µM (inactive) | 1.93 µM (inactive) | 2.23 µM (inactive) | 15.5 µM (inactive) | 1.75 µM (inactive) | 1.9 µM (inactive) | 8.36 µM (inactive) | 4.72 µM (inactive) | 1.92
COc1ccc2nc3ccccc3c(NCCN(C)CCCl)c2c1 | 0.0429 µM (active) | 0.322 µM (active) | 0.388 µM (active) | 0.869 µM (active) | 0.847 µM (active) | 0.807 µM (active) | 0.908 µM (active) | 0.622 µM (active) | 1.03 µM (active) | 1.69 µM (inactive) | 0.861 µM (active) | 0.541 µM (active) | 0.0303 µM (active) | 0.431 µM (active) | 0.984 µM (active) | 0.399 µM (active) | 0.592 µM (active) | 0.67 µM (active) | 1.51 µM (inactive) | 0.515
CC(=O)Oc1ccc(/C=C/C(=O)OCCCOC(=O)/C=C/c2ccc(OC(C)=O)c(OC(C)=O)c2)cc1OC(C)=O | > 100 µM (inactive) | > 100 µM (inactive) | > 100 µM (inactive) | 51.2 µM (inactive) | > 100 µM (inactive) | > 100 µM (inactive) | > 100 µM (inactive) | > 100 µM (inactive) | > 100 µM (inactive) | > 100 µM (inactive) | > 100 µM (inactive) | > 100 µM (inactive) | > 100 µM (inactive) | > 100 µM (inactive) | > 100 µM (inactive) | > 100 µM (inactive) | > 100 µM (inactive) | > 100 µM (inactive) | > 100 µM (inactive) | > 100
CCC1(O)C(=O)OCc2c1cc1n(c2=O)Cc2cc3ccc(C=O)cc3nc2-1 (stereo not given) | 0.132 µM (active) | 0.493 µM (active) | 0.551 µM (active) | 0.294 µM (active) | 13.4 µM (inactive) | > 86.5 µM (inactive) | 3.33 µM (inactive) | 11.1 µM (inactive) | 7.29 µM (inactive) | 27.1 µM (inactive) | 2.2 µM (inactive) | 0.637 µM (active) | < 0.013 µM (active) | 1.96 µM (inactive) | 4.06 µM (inactive) | 4.33 µM (inactive) | 2.2 µM (inactive) | 4.62 µM (inactive) | 19.1 µM (inactive) | 6.08
